Settings: for log10 biotransformation half-life (days) / log10 BCF: fish

| SMILES | melting point [°C] | boiling point [°C] | also measured |
| --- | --- | --- | --- |
| C#C[C@]1(O)CC[C@H]2[C@@H]3CCc4cc(O)ccc4[C@H]3CC[C@@]21C | 183 | – | – |
| FC(Cl)(Cl)I | -107 | 90 | – |
| CCCCCOCC | – | 118 | – |
| FC(Cl)C(F)(F)Cl (stereo unspecified) | -78 | 29.5 | log10 vapour pressure (mmHg): 2.79 |
| O=C(OC1CCCCC1)c1ccccc1 | – | 285 | – |
| c1cc(OCC2CO2)cc(OCC2CO2)c1 (stereo unspecified) | 42.5 | – | – |
| ClC=CCCl (mixture of isomers) | -50 | 109 | log10 Henry constant (atm·m³/mol): -2.62; log10 Koc (L/kg): 1.67 |
| O=C(Cn1c(=O)sc2ccc(Cl)cc21)N1CCN(CCO)CC1 | 160 | – | – |
| CCOC(=O)CO | – | 160 | – |
| NNC(=O)c1ccccc1 | 115 | – | – |
| O=C[C@@H]1C[C@@H]2[C@@H]3[C@H]1[C@@]1(Cl)C(Cl)(Cl)[C@]3(Cl)[C@@]3(Cl)[C@@H]2[C@]31Cl | – | – | log10 vapour pressure (mmHg): -6.7 |
| C=C1C(O)CC2(C(C)C)CC12 (stereo unspecified) | – | 208 | – |
| C[C@H](CN1CCOCC1)C(C(=O)N1CCCC1)(c1ccccc1)c1ccccc1 | 182 | – | – |
| Fc1nc(F)nc(F)n1 | -38 | 72.8 | – |
| CCC1c2ccccc2-c2ccccc21 | – | – | log10 biodegradation half-life (days): 1.46 |
| CC1=CCC(C(C)C)C=C1 (stereo unspecified) | – | 172 | log10 vapour pressure (mmHg): 0.147 |
| Cc1cc(O)cc(C)c1Cl | 115 | 246 | – |
| C[Si]1(C)O[Si](C)(C)O[Si](C)(C)O[Si](C)(C)O[Si](C)(C)O[Si](C)(C)O1 | -3 | 245 | log10 vapour pressure (mmHg): -1.65; log10 biotransformation half-life (days): 2.34 |
| COC(=O)C1(S(=O)(=O)c2ccc([N+](=O)[O-])cc2)CC1 | 127 | – | – |
| C=CCCC=O | – | 99 | – |
| NC[C@H](O)c1ccccc1 | 56.5 | – | – |
| OCCCc1ccncc1 | 37 | 289 | – |
| CC(C)(C)NC(=O)COC(=O)c1ccccc1 | 112 | – | – |

| SMILES | melting point [°C] | boiling point [°C] | also measured |
| --- | --- | --- | --- |
| NCc1ccccc1Sc1ccccc1CO | 97 | – | – |
| CCOc1ccccc1[N+](=O)[O-] | 2.2 | 267 | – |
| CC(C)(C)c1cc([N+](=O)[O-])cc([N+](=O)[O-])c1O | 126 | – | – |
| CC(C)N1C(=O)N(c2ccccc2)CSC1=NC(C)(C)C | 105 | – | log10 vapour pressure (mmHg): -5.03 |
| NC(=O)N=NC(N)=O | – | – | log10 vapour pressure (mmHg): -9.73; ready biodegradability: not readily biodegradable |
| c1ccc2c(c1)Oc1ccccc1O2 | 122 | – | log10 vapour pressure (mmHg): -3.38 |
| Clc1cc(Cl)c(-c2ccc(Cl)c(Cl)c2)c(Cl)c1 | – | – | log10 Henry constant (atm·m³/mol): -4.13 |
| c1ccc2c(c1)Cc1cc3ccccc3cc1-2 | 212 | – | log10 vapour pressure (mmHg): -7.26; log10 biotransformation half-life (days): -0.39 |
| CC(C)=CC1C(C(=O)OCc2cccc(Oc3ccccc3)c2)C1(C)C (stereo unspecified) | – | – | log10 vapour pressure (mmHg): -6.84 |
| CCN(CC)CCCN(c1ccccc1)C1Cc2ccccc2C1 | 120 | – | – |
| CC(C)CC(C)Nc1ccc(Nc2ccccc2)cc1 (stereo unspecified) | – | – | ready biodegradability: not readily biodegradable |
| Cc1cc(C)c(O)c(C)c1C | 80.5 | 240 | – |
| S=C(SSSSC(=S)N1CCCCC1)N1CCCCC1 | – | – | ready biodegradability: not readily biodegradable; log10 BCF: 1.23 |
| CC(=O)/C(C)=N/O | 76.8 | 186 | – |
| ClCC(Cl)CCl | -14.7 | 157 | log10 Henry constant (atm·m³/mol): -3.46; log10 vapour pressure (mmHg): 0.567; ready biodegradability: not readily biodegradable; log10 BCF: 1.11; log10 biotransformation half-life (days): -0.53 |
| N#CCc1cccc(CC#N)c1 | 33.5 | – | – |
| C=CCCCC=C | -129 | – | – |
| C[C@H](CCC(=O)NCC(=O)O)[C@H]1CC[C@H]2[C@@H]3[C@H](O)C[C@@H]4C[C@H](O)CC[C@]4(C)[C@H]3C[C@H](O)[C@]12C | 166 | – | – |
| Clc1cc(Cl)c(-c2c(Cl)c(Cl)cc(Cl)c2Cl)c(Cl)c1Cl | – | – | log10 Henry constant (atm·m³/mol): -4.77; log10 biotransformation half-life (days): 2.46 |
| COc1c(Br)cc(Br)cc1Br | 88 | 298 | – |
| CC1NC(C)SC(C)S1 (stereo unspecified) | 46 | – | – |
| Nc1ccc2[nH]ncc2c1 | 176 | – | – |
| CCOC(=O)C(Br)CC (stereo unspecified) | – | 177 | – |
